This note sets out measurements from a melting point compilation (Tetko et al.; mined from patent text by program, amines drawn as free bases though some values may be those of a salt).

Broadly, the melting point is the temperature, or range, at which the solid turns liquid.

Molecules are shown by their SMILES.

`COc1cc(OC)nc(-n2nc(C)oc2=O)n1`: the melting point came out at 158 °C. `N#Cc1cc(F)c(Sc2nc[nH]n2)cc1F` registered a melting point of 185 °C. The figure for `OC[C@@H](O)[C@@H](c1cccc(Br)c1)N1CCc2cccc(OCc3ccccc3)c21` is 61 to 66 °C; for `CCN1C(=O)C(C)(C)C(=O)N(C)c2cc(CN(CCn3ccc4oc(C)cc4c3=O)Cc3cccnc3C=O)ccc21` it is 147 to 149 °C; for `Cc1cc2nnc(C)n2nc1-c1cccc(C(F)(F)F)c1` it is 185 to 187 °C.

In the case of `O=C(O)C1CCc2ccccc2O1` (single isomer, unassigned; (+)), the melting point is 85.5 °C.

In turn, `Nc1ncc2c(n1)-c1ccc(Cl)cc1C(c1ccccc1)=NC2` yielded a melting point of 209 to 210 °C. The figure for `C[C@@H](n1cnc2cc(Sc3ccccc3)ccc2c1=O)[C@](O)(Cn1cncn1)c1ccc(F)cc1F` is 84 to 87 °C; for `O=C1c2ccccc2C(O)(c2ccc(Cl)cc2)N1Cc1ccc(Cl)cc1` (stereo not drawn) it is 156 to 157 °C. The figure for `N#Cc1cccc(CN2CCc3sc(Nc4ncc(F)cn4)nc3-c3cn[nH]c32)c1` is 282 to 284 °C.

The molecule `COc1ccc(-c2nc3cc(Cl)c(Cl)cc3n2C(=O)OCc2ccccc2)cc1NS(=O)(=O)c1cccs1` had a melting point of 195 to 198 °C. As for `O=C(Cc1ccccc1)c1cc(Br)ccc1O`, the melting point lay within 83 to 86 °C. On to `O=C(O)COc1ccc2c(c1)-c1nc(S(=O)(=O)CC(c3ccccc3)c3ccccc3)sc1CC2`, for which the melting point is 183 to 185 °C. The figure for `O=C1CC(OCc2ccccc2)C2COC1O2` (stereo not drawn) is 118 to 119 °C; for `O=C1CC(SCc2ccccc2)N1` (stereo not drawn) it is 50 to 51 °C; for `Cc1cc2cccc(OCCNCc3cccc(C4=CCCC4)c3)c2o1` it is 133 °C.

As for `COc1cc(NC(=O)OCc2ccccc2)c(Cl)cc1C(=O)O`, the melting point lay in the range of 182 to 183 °C.

With `CC1(C)OC(c2ccc(S(C)(=O)=O)cc2)=C(c2cccc(F)c2)C1=O`, the melting point was 178 to 179 °C.

`Cc1c(-c2ccccc2)nc2ccc(NC(=O)c3cc4cc(F)ccc4n3Cc3cccc(F)c3)cn12` had a melting point of 258 to 259 °C. In the case of `COc1cc(N)c(Cl)cc1C(=O)N[C@H]1CCN(CC#N)C[C@H]1OC` (relative stereo) it was 130 °C; in that of `CCC(=O)c1cc(F)c(OCC2CC2(Cl)Cl)cc1F` (stereo not drawn), 89 to 91 °C; in that of `COc1ccc(-c2c3c(c(C)c4ccc(OC)cc24)C(=O)NC3=O)cc1`, 282 to 284 °C.

`N#CC1c2ccccc2C=Cc2ccccc21` gave a melting point of 102 to 104 °C.

On to `CC(=O)Nc1cccc(C=Cc2nc3c(c(=O)n(C)c(=O)n3C)n2C)c1`, for which the melting point was > 300 °C. In the case of `CCOc1ccc(-n2c(N)cc(=O)nc2SC)cc1`, the melting point lay in the range of 177 to 181 °C. In the case of `Cc1cccc(C)c1N(CC(C)N)S(C)(=O)=O` (stereo not drawn) it was 106 to 109 °C. Regarding `COC(=O)c1ccccc1-c1cc(-c2ccc(C(F)(F)F)cc2)no1`, the melting point lay within 90.5 to 92 °C. In the case of `Cc1cc2c(OCc3ccc(C#N)cc3)cccc2o1` it was 84 to 85 °C; in that of `CC1(O)CC=C2C3CCC4=CC(=O)CCC4C3C(c3ccc(-c4ccoc4)cc3)CC21C` (stereo not drawn), 198 to 199 °C. Consider `CN(C)C(=O)c1ccc(C(=O)O)c(S(=O)(=O)NC(C)(C)C)c1`, for which the melting point is > 260 °C. The figure for `CC(C)(C)OC(=O)N1CCC[C@@H](O)[C@H](C(=O)O)C1` is 98.5 to 102 °C.

In turn, `CCCCCCCCN1CCN(O)C1=O` came in with a melting point of 53.5 to 55.5 °C. `Cc1cc(NS(=O)(=O)c2ccc(S(C)(=O)=O)cc2)cc(C)c1S(=O)(=O)C[N+](=O)[O-]` yielded a melting point of 192 to 194 °C. In the case of `CC(CO)NC(=O)C(F)(F)F` (stereo not drawn) it was 80 to 81 °C. In the case of `Cc1cc(O)ccc1N1CCc2c(C)nc3ccccc3c21` it was 315 to 318 °C. On to `CCOC(=O)CS(=O)CCCCl` (stereo not drawn), for which the melting point was 46 to 47 °C. The figure for `CC(C)c1cccc(C(C)C)c1NC(=O)CNC(c1ccccc1)c1ccc(N(C)C)cc1` (stereo not drawn) is 116 to 117 °C; for `COc1cc(C=O)ccc1OCCN1c2ccccc2Sc2ccccc21` it is 130 °C; for `CCCCCCN1CC[C@H](NC(=O)c2cc(Cl)c(N)c3c2OCC3)[C@H](O)C1` (relative stereo) it is 130 °C. With `O=C(NO)C(CCN1C(=O)c2ccccc2C1=O)NS(=O)(=O)c1ccc(-c2ccc(Cl)cc2)cc1` (stereo not drawn), the melting point lay in the range of 184 to 186 °C.

`Nc1nc(Cl)c2[nH]c(=O)n(CCCCO)c2n1` had a melting point of 222 to 225 °C. In the case of `CCC(Oc1ccccc1Br)C(=O)O` (stereo not drawn) it was 102 °C; in that of `N#Cc1cc(C(=O)NNC(=O)c2occc2-c2cccs2)ccc1O`, 258 to 259 °C.

For `COc1ccc(CN2C(=O)C(c3cc(C#N)c(O)cc3O)c3ccccc32)cc1` (stereo not drawn), the melting point was in the range of 162 to 163 °C. The figure for `COCCOCCOc1ccc2c(c1)S(=O)(=O)N(CCl)C2=O` is 113 to 115 °C; for `CC(/C=C/c1ccsc1-c1cc2c(cc1C)C(C)(C)CCC2(C)C)=C\C(=O)O` it is 194 to 195 °C.

With `Cc1cc(C(N)=O)cc([N+](=O)[O-])n1`, the melting point fell in the range of 227 to 228 °C. The figure for `CC(=O)c1ccc2c(c1)CC(NC(=O)C(F)(F)F)C2` (stereo not drawn) is 112 to 114 °C. The figure for `CC(C)(CC(N)=O)c1ccc2c(c1)OCO2` is 70 to 71.5 °C. The figure for `CCOC(=O)c1c(CN2CCC(C(=O)OCC)CC2)nc2sc3c(c2c1-c1ccc(OC)c(OC)c1)CCN(C(=O)c1ccc(Cl)cc1)C3` is 99 to 101 °C; for `COc1ccc2c(c1)c(-c1ccccc1)nc(=O)n2CC1CC1` it is 114 to 115 °C.

In turn, `Cc1cc(C(=O)O)ccc1Sc1cc2c(cc1C)C(C)(C)CCC2(C)C` showed a melting point of 217 to 218 °C.

For `CC(C)n1nc(-c2c(Nc3ccccc3)nc(N)nc2-c2ccccc2)ccc1=O`, the melting point was 240 to 242 °C. In the case of `COc1ccccc1C(=O)Nc1cc(C(=O)NCc2ccccc2)ccn1` it was 205 to 207 °C; in that of `CS(=O)(=O)NCCN1CCC(CO)CC1`, 81 to 82 °C; in that of `COc1ccc(C2SC(=O)NC2C(=O)NCCO[N+](=O)[O-])cc1` (stereo not drawn), 142 to 143 °C. The molecule `CC(C)(C)OC(=O)c1ccccc1-c1ccc(CBr)cc1` yielded a melting point of 98 to 101 °C.

As for `CCCCc1nc2cc[nH]c(=O)c2n1Cc1ccc(-c2ccccc2-c2nnn[nH]2)cc1`, the melting point was 167 °C. In the case of `O=C1NCCCc2cc(CCCl)sc21` it was 156 to 158 °C; in that of `Cc1nc2ccc3c(c2nc1C)C(=O)c1ccccc1C3=O`, > 400 °C.

Consider `CCC(CC)(CCS(N)(=O)=O)COc1nn2ncnc2cc1C`, for which the melting point was in the range of 148 to 149 °C. On to `CC1(C)C(=O)c2c(cc(O)c(Cl)c2Cl)C1c1ccccc1` (stereo not drawn), for which the melting point was in the range of 259 to 262 °C. The figure for `CCCC(=O)c1cnc2c(C)cccc2c1Nc1cc(OC)ccc1OC` is 115 to 116 °C; for `COc1ccc(Nc2ccnc(F)c2)cc1` it is 150 °C; for `Cc1ccc(NCc2ccc(/C=C/C(=O)O)cc2)cc1Nc1nccc(-c2cccnc2)n1` it is 234 to 242 °C. Regarding `CNc1nc(-c2cc(F)cc(F)c2)nc2nc(-c3ccco3)nn12`, the melting point is 231 to 234 °C. Turning to `C[C@H](CI)[C@H]1CC[C@H]2[C@@H](O[Si](C)(C)C(C)(C)C)CCC[C@]12C`, the melting point fell in the range of 40 to 41 °C.

As to `CC1(C)CON(Cc2ccc(NC(=O)c3ncccc3C(=O)O)cc2Cl)C1=O`, the melting point fell in the range of 94 to 96 °C. Consider `CNC(=O)C(=NOC)c1ccccc1C#Cc1ccccc1C`, for which the melting point lay in the range of 128 to 129 °C. Consider `Clc1cccc(Nc2nc3nonc3nc2Nc2cccc(Cl)c2)c1`, for which the melting point came out at 238 °C. In the case of `O=C1CCN(c2ccncn2)CC1` it was 61 to 65 °C; in that of `COc1cccc(C(=NO)c2ccc(F)cc2F)c1`, 122 to 127 °C. In turn, `O=c1[nH]cc(Cc2ccccc2)c2ccccc12` yielded a melting point of 217 to 220 °C.

Regarding `CC(=O)c1cc([N+](=O)[O-])c(N)c2c1CCCC2`, the melting point lay within 170 to 172 °C. As for `CCCCCCCCCCCCCCOc1cc(OCCCCCCc2cccc(OCc3ccccc3)c2OCc2ccccc2)cc(C(=O)OC)c1`, the melting point was in the range of 56 to 58 °C. The figure for `CCCCOc1c(CNC(=O)OC(C)(C)C)n(CC(C)(C)C)c(=O)c2ccc(/C=C/C(=O)O)cc12` is 138 to 139 °C; for `CCCCCCCCCCCCCCOc1cc(C(=O)OC)ccc1OC` it is 77 to 79 °C; for `O=c1[nH]ncc2[nH]c(-c3ccc(OC(F)F)c(OC4CC4)c3)c(Cc3ccc(F)cc3)c12` it is 193 to 195 °C. The figure for `COCC1CN(C(=O)c2cc(OC)c(OC)c(OC)c2)CCN1C(=O)C1=Cc2cc(OC)c(OC)cc2CCC1` (stereo not drawn) is 137 °C; for `CC(C)(C)OC(=O)n1nc(-c2cc3ccc(OCCCN4CCCC(O)C4)cc3n2C(=O)OC(C)(C)C)c2sc(-c3ccccc3)cc21` (stereo not drawn) it is 213 to 216 °C; for `CNC(=O)N1CCc2nc(N)sc2C1` it is 202 °C.

As to `COc1cc(OC)c([N+](=O)[O-])nc1NCCO`, the melting point was 131 °C.

On to `CC1CC(=Cc2cc(C(C)(C)C)c(O)c(C(C)(C)C)c2)C(=O)N1C(N)=O` (stereo not drawn), for which the melting point lay within 195 to 196 °C. For the molecule `O=C(O)CCCc1cc2nc(Cl)ccc2n1S(=O)(=O)c1c(F)cc(F)cc1F`, the melting point lay in the range of 135 to 150 °C. In the case of `Cc1cc(-c2cnn3c(C(F)(F)F)cc(-c4cccc(C(F)(F)F)c4)nc23)ccn1` it was 232 °C; in that of `COc1cc2c(cc1OC)CN(CCc1ccc(N)cc1)CC2`, 120 °C. Molecule `COC(=O)CCC(=O)c1cc2c(cc1Cl)CC(NC(=O)OC)CC2` (stereo not drawn) registered a melting point of 86 to 89 °C. The figure for `COC(=O)C1=C(C)NC(C)=C(C(=O)OCC2CCCO2)C1c1cccc(C#N)c1` (stereo not drawn) is 127 to 129 °C.
